Measured values from paper PMC10114720.

What was measured:
[1] = PDMS sheets cleaned by Soxhlet with ethyl acetate; batch shaking method with a mixture of all chemicals at several PDMS-mass to water-volume ratios and spiked levels; vials shaken on an orbital shaker at room temperature in the dark, sampled at two equilibration times; PDMS extracts and water quantified by LC-HRMS (Orbitrap); D from the slope of C_PDMS on C_w or their ratio; value is the mean over that pH's experiments (individual experiments in the SI's concentrations table), sd is the table's stdev; details: PDMS (polydimethylsiloxane silicone sheet), phosphate buffer at three target pH values (the paper's methods)
[2] = monoprotic acid or base: log K of the neutral species extrapolated from the linear regression of D on the neutral fraction (from pKa and pH; the paper's eq. for monoprotic IOCs), the slope giving K of the neutral species; replicates column holds the table's 95% confidence limits. PDMS sheets cleaned by Soxhlet with ethyl acetate; batch shaking method with a mixture of all chemicals at several PDMS-mass to water-volume ratios and spiked levels; vials shaken on an orbital shaker at room temperature in the dark, sampled at two equilibration times; PDMS extracts and water quantified by LC-HRMS (Orbitrap); D from the slope of C_PDMS on C_w or their ratio; details: PDMS (polydimethylsiloxane silicone sheet); phosphate buffer at three target pH values (the paper's methods)

Row | log D PDMS/w (apparent distribution ratio at the stated pH) ([1]; pH 3) | log D PDMS/w (apparent distribution ratio at the stated pH) ([1]; pH 7.4) | log D PDMS/w (apparent distribution ratio at the stated pH) ([1]; pH 11.5) | log K PDMS/w (neutral species) [2] | Compound
1 | 1.351 log units; D and K as the pape | 1.251 log units; D and K as the pape | 1.334 log units; D and K as the pape | 1.406 log units; D and K as the pape | O=c1c2ccccc2[nH]c2ccccc12
2 | 4.46 log units; D and K as the pape | 2.944 log units; D and K as the pape | – | – | CC(C)(c1cc(Br)c(O)c(Br)c1)c1cc(Br)c(O)c(Br)c1
3 | 2.216 log units; D and K as the pape | 2.266 log units; D and K as the pape | 2.184 log units; D and K as the pape | 2.315 log units; D and K as the pape | CCOC(=O)c1ccc(N(C)C)cc1
4 | 1.101 log units; D and K as the pape | 1.143 log units; D and K as the pape | – | 0.9455 log units; D and K as the pape | CCOC(=O)CC(O)(CC(=O)OCC)C(=O)OCC
5 | -0.855 log units; D and K as the pape | -0.2383 log units; D and K as the pape | – | – | CC(CCc1ccccc1)NCC(O)c1ccc(O)c(C(N)=O)c1 (stereo not drawn)
6 | 0.055 log units; D and K as the pape | 0.06625 log units; D and K as the pape | – | 0.1268 log units; D and K as the pape | c1ccc2[nH]nnc2c1
7 | 0.4988 log units; D and K as the pape | 0.4322 log units; D and K as the pape | 0.4489 log units; D and K as the pape | 0.5546 log units; D and K as the pape | CCOC(=O)c1ccc(N)cc1
8 | 0.8893 log units; D and K as the pape | -0.01 log units; D and K as the pape | -0.67 log units; D and K as the pape | 1.068 log units; D and K as the pape | CCCCc1nc(Cl)c(CO)n1Cc1ccc(-c2ccccc2-c2nn[nH]n2)cc1
9 | – | – | – | 1.867 log units; D and K as the pape | O=C(O)Cc1ccccc1Nc1c(Cl)cccc1Cl
10 | 0.632 log units; D and K as the pape | 0.2933 log units; D and K as the pape | – | – | N[C@@H](Cc1cc(I)c(Oc2cc(I)c(O)c(I)c2)c(I)c1)C(=O)O
11 | 1.914 log units; D and K as the pape | 1.863 log units; D and K as the pape | 1.825 log units; D and K as the pape | 2.015 log units; D and K as the pape | CCNc1ccc2c(C)cc(=O)oc2c1
12 | 1.704 log units; D and K as the pape | 1.897 log units; D and K as the pape | 1.881 log units; D and K as the pape | 2.029 log units; D and K as the pape | c1ccc2sc(N3CCOCC3)nc2c1
13 | 0.5417 log units; D and K as the pape | 1.69 log units; D and K as the pape | 1.693 log units; D and K as the pape | 1.855 log units; D and K as the pape | c1ccc2[nH]c(-c3cscn3)nc2c1
14 | -0.02167 log units; D and K as the pape | – | – | 0.05461 log units; D and K as the pape | O=C(O)CCC(=O)c1ccc(F)cc1
15 | – | – | – | 2.916 log units; D and K as the pape | NC12CC3CC(CC(C3)C1)C2
16 | 1.465 log units; D and K as the pape | 1.732 log units; D and K as the pape | 1.506 log units; D and K as the pape | – | COC(=O)Nc1nc2ccc(C(=O)c3ccccc3)cc2[nH]1
17 | 0.7792 log units; D and K as the pape | 2.087 log units; D and K as the pape | -0.02556 log units; D and K as the pape | – | CCc1ccc(CCOc2ccc(CC3SC(=O)NC3=O)cc2)nc1 (stereo not drawn)
18 | – | -0.58 log units; D and K as the pape | -0.51 log units; D and K as the pape | – | Nc1nc2ccccc2[nH]1
19 | 0.28 log units; D and K as the pape | -0.003333 log units; D and K as the pape | – | – | COCCc1ccc(OCC(O)CNC(C)C)cc1 (stereo not drawn)

Row | Compound | log D PDMS/w (apparent distribution ratio at the stated pH) ([1]; pH 3) | log D PDMS/w (apparent distribution ratio at the stated pH) ([1]; pH 7.4) | log D PDMS/w (apparent distribution ratio at the stated pH) ([1]; pH 11.5) | log K PDMS/w (neutral species) [2]
20 | CO/C=C(/C(=O)O)c1ccccc1Oc1cc(Oc2ccccc2C#N)ncn1 | 1.162 log units; D and K as the pape | -0.4633 log units; D and K as the pape | -0.695 log units; D and K as the pape | 1.355 log units; D and K as the pape
21 | c1ccc2c(c1)[nH]c1cnccc12 | 1.471 log units; D and K as the pape | 2.208 log units; D and K as the pape | 2.227 log units; D and K as the pape | 2.353 log units; D and K as the pape
22 | Clc1ccc2n[nH]nc2c1 | 0.7386 log units; D and K as the pape | 0.79 log units; D and K as the pape | 0.065 log units; D and K as the pape | 1.144 log units; D and K as the pape
23 | Oc1c(Br)cc(Cl)cc1Cc1cc(Cl)cc(Br)c1O | 3.724 log units; D and K as the pape | 2.256 log units; D and K as the pape | 0.555 log units; D and K as the pape | –
24 | Cc1ccc2[nH]nnc2c1 | 0.336 log units; D and K as the pape | 0.308 log units; D and K as the pape | -0.64 log units; D and K as the pape | 0.3619 log units; D and K as the pape
25 | Clc1cccc(Cl)c1NC1=NCCN1 | 0.07 log units; D and K as the pape | 1.56 log units; D and K as the pape | – | 2.618 log units; D and K as the pape
26 | CNC(=O)Oc1cccc2ccccc12 | – | – | – | 1.106 log units; D and K as the pape
27 | O=C(Nc1ccc(Cl)c(Cl)c1)c1cc(Cl)cc(Cl)c1O | – | – | – | 3.883 log units; D and K as the pape
28 | CCc1cccc(C)c1N(C(=O)C(=O)O)C(C)C(=O)O (stereo not drawn) | 1.878 log units; D and K as the pape | 3.06 log units; D and K as the pape | 3.008 log units; D and K as the pape | –
